# Results as given in ChEMBL document CHEMBL1909508, “Structure-activity relationship study of arylsulfonylimidazolidinones as anticancer agents” (Bioorg Med Chem Lett, 2011).
# Assays:
# [1] = test system: HCT-116; assay: Cytotoxicity against human HCT116 cells by MTT assay; format: functional, cell-based
# [2] = test system: A549; assay: Cytotoxicity against human A549 cells by MTT assay; format: functional, cell-based
# [3] = test system: NCI-H460; assay: Cytotoxicity against human NCI-H460 cells by MTT assay; format: functional, cell-based
# [4] = Inhibition of tubulin polymerization
Compound,IC50 [1] [nM],IC50 [2] [nM],IC50 [3] [nM],IC50 [4] [nM]
CCOC(=O)Nc1ccc(S(=O)(=O)N2C[C@H](c3ccccc3)NC2=O)c(C)c1C,350,300,300,–
CCOC(=O)Nc1ccc(S(=O)(=O)N2C[C@H](c3ccccc3)NC2=O)cc1C,70,50,70,6000
CCOC(=O)Nc1ccc(S(=O)(=O)N2C[C@H](c3ccccc3)NC2=O)cc1CC,70,60,70,–
CCOC(=O)Nc1ccc(S(=O)(=O)N2C[C@H](c3ccccc3)NC2=O)cc1F,5000,3800,4500,–
CCc1cc(S(=O)(=O)N2C[C@H](c3ccccc3)NC2=O)ccc1NC(=O)OCC(C)C,60,70,80,–
CCOC(=O)Nc1ccc(S(=O)(=O)N2C(=O)N[C@@H](c3ccccc3)C2C)cc1Cl (some centres not stated),5500,6000,6000,–
CC1[C@H](c2ccccc2)NC(=O)N1S(=O)(=O)c1ccc(NC(=O)c2ccc([N+](=O)[O-])cc2)c(Cl)c1 (some centres not stated),> 10000,> 10000,> 10000,–
CCCCOC(=O)Nc1ccc(S(=O)(=O)N2C[C@H](c3ccccc3)NC2=O)cc1CC,200,200,200,–
CCOC(=O)Nc1ccc(S(=O)(=O)N2C[C@H](c3ccccc3)NC2=O)cc1Cl,200,20,20,–
CCc1cc(S(=O)(=O)N2C[C@H](c3ccccc3)NC2=O)ccc1NC(=O)NC(C)C,60,100,70,–
CCOC(=O)Nc1c(C)cc(S(=O)(=O)N2C[C@H](c3ccccc3)NC2=O)cc1C,> 10000,> 10000,> 10000,–
Cc1cc(S(=O)(=O)N2C(=O)N[C@@H](c3ccccc3)C2C)ccc1NC(=O)c1ccc(N)cc1 (some centres not stated),> 10000,> 10000,> 10000,–
CCc1cc(S(=O)(=O)N2C[C@H](c3ccccc3)NC2=O)ccc1NC(=O)c1ccc(N)cc1,460,220,670,–
CCc1cc(S(=O)(=O)N2C[C@H](c3ccccc3)NC2=O)ccc1NC(=O)c1ccc([N+](=O)[O-])cc1,500,700,800,–
CCOC(=O)Nc1ccc(S(=O)(=O)N2C(=O)N[C@@H](c3ccccc3)C2C)cc1C (some centres not stated),5500,5000,5000,–
CCc1cc(S(=O)(=O)N2C[C@H](c3ccccc3)NC2=O)ccc1NC(=O)NC1CCCCC1,300,500,300,–
CCc1cc(S(=O)(=O)N2C[C@H](c3ccccc3)NC2=O)ccc1NC(=O)OC,200,250,300,–
CCCOC(=O)Nc1ccc(S(=O)(=O)N2C[C@H](c3ccccc3)NC2=O)cc1CC,60,60,60,–
COc1cccc2c1C(=O)c1c(O)c3c(c(O)c1C2=O)C[C@@](O)(C(=O)CO)C[C@@H]3O[C@H]1C[C@H](N)[C@H](O)[C@H](C)O1 [DOXORUBICIN],400,–,456,–
Nc1ccc(C(=O)Nc2ccc(S(=O)(=O)N3C[C@H](c4ccccc4)NC3=O)cc2Cl)cc1,–,–,–,5500
CC1[C@H](c2ccccc2)NC(=O)N1S(=O)(=O)c1ccc(NC(=O)c2ccc(N)cc2)c(Cl)c1 (some centres not stated),> 10000,> 10000,> 10000,–
Cc1cc(S(=O)(=O)N2C(=O)N[C@@H](c3ccccc3)C2C)ccc1NC(=O)c1ccc([N+](=O)[O-])cc1 (some centres not stated),> 10000,> 10000,> 10000,–
CCc1cc(S(=O)(=O)N2C[C@H](c3ccccc3)NC2=O)ccc1NC(=O)OC(C)C,60,60,60,–
